What was measured:
Conditions in all cases: Homo sapiens
[1] = system: MCF7; experiment: Cytotoxicity (growth inhibition) against breast cancer MCF-7 cell line at 10E-8 mol/L; type: functional
[2] = system: MDA-MB-231; experiment: Cytotoxicity (growth inhibition) against breast cancer MDAMB-231 cell line at 10E-6 mol/L; type: functional
[3] = system: MCF7; experiment: Cytotoxicity (growth inhibition) against breast cancer MCF-7 cell line at 10E-6 mol/L; type: functional
[4] = system: MDA-MB-231; experiment: Cytotoxicity (growth inhibition) against breast cancer MDAMB-231 cell line at 10E-7 mol/L; type: functional
[5] = system: MDA-MB-231; experiment: Cytotoxicity (growth inhibition) against breast cancer MDAMB-231 cell line at 10E-9 mol/L; type: functional
[6] = system: MDA-MB-231; experiment: Cytotoxicity (growth inhibition) against breast cancer MDAMB-231 cell line at 10E-5 mol/L; type: functional
[7] = system: Ishikawa; experiment: Cytotoxicity (growth inhibition) against endometrial cancer ishikawa cell line at 10E-8 mol/L after 24 hr; type: functional
[8] = system: Ishikawa; experiment: Inhibition of the necrosis induced by compound in endometrial cancer ishikawa cell line after 24 hr; type: functional, cell-based
[9] = system: MDA-MB-231; experiment: Cytotoxicity (growth inhibition) against breast cancer MDAMB-231 cell line at 10E-8 mol/L; type: functional
[10] = system: MCF7; experiment: Inhibition of the necrosis induced by compound in breast cancer MCF-7 cell line; type: functional, cell-based
[11] = system: Ishikawa; experiment: Cytotoxicity (growth inhibition) against endometrial cancer ishikawa cell line at 10E-9 mol/L after 24 hr; type: functional
[12] = system: Ishikawa; experiment: Cytotoxicity (growth inhibition) against endometrial cancer ishikawa cell line at 10E-6 mol/L after 24 hr; type: functional
[13] = system: MDA-MB-231; experiment: Inhibition of the necrosis induced by compound in breast cancer MDAMB-231 cell line; type: functional, cell-based
[14] = system: Ishikawa; experiment: Cytotoxicity (growth inhibition) against endometrial cancer ishikawa cell line at 10E-5 mol/L after 24 hr; type: functional
[15] = system: MCF7; experiment: Cytotoxicity (growth inhibition) against breast cancer MCF-7 cell line at 10E-9 mol/L; type: functional
[16] = system: Ishikawa; experiment: Cytotoxicity (growth inhibition) against endometrial cancer ishikawa cell line at 10E-7 mol/L after 24 hr; type: functional
[17] = system: MCF7; experiment: Cytotoxicity (growth inhibition) against breast cancer MCF-7 cell line at 10E-5 mol/L; type: functional
[18] = system: MCF7; experiment: Cytotoxicity (growth inhibition) against breast cancer MCF-7 cell line at 10E-7 mol/L; type: functional

Question: For `COc1ccc(C(=O)O[C@H]2[C@H](O[C@@H]3[C@@H](OC(C)=O)[C@H](O[C@H]4C[C@H]5[C@@H]6CC=C7C[C@@H](O)CC[C@]7(C)[C@H]6CC[C@]5(C)[C@@]4(O)[C@H](C)C(=O)CCC(C)C)OC[C@@H]3O)OC[C@@H](O)[C@@H]2O)cc1`, which inhibition at 0.01 µM [1] is on record?
Answer: Its inhibition at 0.01 µM is 100%.

Question: And the inhibition at 1 µM [2]?
Answer: The inhibition at 1 µM was 100%.

Question: And the inhibition at 1 µM [3]?
Answer: Its inhibition at 1 µM is 100%.

Question: And the inhibition at 0.1 µM [4]?
Answer: The inhibition at 0.1 µM was 100%.

Question: What about the inhibition at 0.001 µM [5] of the same molecule?
Answer: The inhibition at 0.001 µM was 100%.

Question: And the inhibition at 10 µM [6]?
Answer: The inhibition at 10 µM was 100%.

Question: And the inhibition at 0.01 µM [7]?
Answer: The inhibition at 0.01 µM was 100%.

Question: What about the IC50 [8] of the same molecule?
Answer: Its IC50 is 3 µM.

Question: And the inhibition at 0.01 µM [9]?
Answer: The inhibition at 0.01 µM was 100%.

Question: What about the IC50 [10] of the same molecule?
Answer: The IC50 was 7 µM.

Question: What about the inhibition at 0.001 µM [11] of the same molecule?
Answer: Its inhibition at 0.001 µM is 95%.

Question: And the inhibition at 1 µM [12]?
Answer: Its inhibition at 1 µM is 100%.

Question: What about the IC50 [13] of the same molecule?
Answer: The IC50 was 0.5 µM.

Question: What about the inhibition at 10 µM [14] of the same molecule?
Answer: The inhibition at 10 µM was 100%.

Question: What about the inhibition at 0.001 µM [15] of the same molecule?
Answer: The inhibition at 0.001 µM was 87%.

Question: What about the inhibition at 0.1 µM [16] of the same molecule?
Answer: Its inhibition at 0.1 µM is 100%.

Question: And the inhibition at 10 µM [17]?
Answer: Its inhibition at 10 µM is 100%.

Question: What about the inhibition at 0.1 µM [18] of the same molecule?
Answer: The inhibition at 0.1 µM was 100%.
